Test results from paper PMC6886798, “Expression of myeloid Src-family kinases is associated with poor prognosis in AML and influences Flt3-ITD kinase inhibitor acquired resistance” (PLoS ONE, 2019).

Assays:
Test in all cases: KINOMEscan
Format in all cases: binding
Conditions in all cases: 1.0 µM
MEK6 = target: T1, MEK6 (Homo sapiens, UniProt P52564)
T1 construct: purchased Eurofins/DiscoverX KINOMEscan scanMAX
Method: (§1) Kinase retention to the immobilized ligand is then measured using quantitative real-time PCR for each kinase-specific DNA barcode.

ULK3 = target: T2, ULK3 (Homo sapiens, UniProt Q6PHR2)
T2 construct: DNA tag (qPCR barcode); purchased Eurofins/DiscoverX KINOMEscan scanMAX
Method: as §1

FGFR4 = target: T3, FGFR4 (Homo sapiens, UniProt P22455)
T3 construct: purchased Eurofins/DiscoverX KINOMEscan scanMAX
Method: as §1

SRPK3 = target: T4, SRPK3 (Homo sapiens, UniProt Q9UPE1)
T4 construct: purchased Eurofins/DiscoverX KINOMEscan scanMAX
Method: as §1

CLK2 = target: T5, CLK2 (Homo sapiens, UniProt P49760)
T5 construct: purchased Eurofins/DiscoverX KINOMEscan scanMAX
T5 sequence (P49760 whole entry): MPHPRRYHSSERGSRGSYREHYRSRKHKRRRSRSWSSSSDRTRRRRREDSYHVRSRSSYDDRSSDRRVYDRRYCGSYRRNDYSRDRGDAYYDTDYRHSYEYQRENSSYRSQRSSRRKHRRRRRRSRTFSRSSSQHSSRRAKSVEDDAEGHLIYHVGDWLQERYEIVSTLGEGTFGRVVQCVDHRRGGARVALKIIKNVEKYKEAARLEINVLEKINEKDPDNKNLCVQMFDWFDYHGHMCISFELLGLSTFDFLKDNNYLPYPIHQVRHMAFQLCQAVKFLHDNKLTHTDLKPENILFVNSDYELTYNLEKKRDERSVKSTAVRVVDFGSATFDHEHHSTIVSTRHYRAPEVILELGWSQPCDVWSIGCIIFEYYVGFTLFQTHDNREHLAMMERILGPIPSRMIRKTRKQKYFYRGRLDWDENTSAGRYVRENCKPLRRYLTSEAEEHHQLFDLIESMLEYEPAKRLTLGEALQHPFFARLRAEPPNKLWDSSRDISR
Method: as §1

[1] = target: T6, RPS6KA4(Kin.Dom.1-N-terminal) (Homo sapiens, UniProt O75676)
T6 construct: RPS6KA4(Kin.Dom.1-N-terminal); purchased Eurofins/DiscoverX KINOMEscan scanMAX
Method: as §1

PKAC-beta = target: T7, PKAC-beta (Homo sapiens, UniProt P22694)
T7 construct: purchased Eurofins/DiscoverX KINOMEscan scanMAX
Method: as §1

BRAF = target: T8, BRAF (Homo sapiens, UniProt P15056)
T8 construct: purchased Eurofins/DiscoverX KINOMEscan scanMAX
Method: as §1

WNK4 = target: T9, WNK4 (Homo sapiens, UniProt Q96J92)
T9 construct: DNA tag (qPCR barcode); purchased Eurofins/DiscoverX KINOMEscan scanMAX
Method: as §1

ASK1 = target: T10, ASK1 (Homo sapiens, UniProt Q99683)
T10 construct: purchased Eurofins/DiscoverX KINOMEscan scanMAX
Method: as §1

MELK = target: T11, MELK (Homo sapiens, UniProt Q14680)
T11 construct: purchased Eurofins/DiscoverX KINOMEscan scanMAX
Method: as §1

RIPK1 = target: T12, RIPK1 (Homo sapiens, UniProt Q13546)
T12 construct: purchased Eurofins/DiscoverX KINOMEscan scanMAX
Method: as §1

PIK3CB = target: T13, PIK3CB (Homo sapiens, UniProt P42338)
T13 construct: purchased Eurofins/DiscoverX KINOMEscan scanMAX
T13 sequence (P42338 whole entry): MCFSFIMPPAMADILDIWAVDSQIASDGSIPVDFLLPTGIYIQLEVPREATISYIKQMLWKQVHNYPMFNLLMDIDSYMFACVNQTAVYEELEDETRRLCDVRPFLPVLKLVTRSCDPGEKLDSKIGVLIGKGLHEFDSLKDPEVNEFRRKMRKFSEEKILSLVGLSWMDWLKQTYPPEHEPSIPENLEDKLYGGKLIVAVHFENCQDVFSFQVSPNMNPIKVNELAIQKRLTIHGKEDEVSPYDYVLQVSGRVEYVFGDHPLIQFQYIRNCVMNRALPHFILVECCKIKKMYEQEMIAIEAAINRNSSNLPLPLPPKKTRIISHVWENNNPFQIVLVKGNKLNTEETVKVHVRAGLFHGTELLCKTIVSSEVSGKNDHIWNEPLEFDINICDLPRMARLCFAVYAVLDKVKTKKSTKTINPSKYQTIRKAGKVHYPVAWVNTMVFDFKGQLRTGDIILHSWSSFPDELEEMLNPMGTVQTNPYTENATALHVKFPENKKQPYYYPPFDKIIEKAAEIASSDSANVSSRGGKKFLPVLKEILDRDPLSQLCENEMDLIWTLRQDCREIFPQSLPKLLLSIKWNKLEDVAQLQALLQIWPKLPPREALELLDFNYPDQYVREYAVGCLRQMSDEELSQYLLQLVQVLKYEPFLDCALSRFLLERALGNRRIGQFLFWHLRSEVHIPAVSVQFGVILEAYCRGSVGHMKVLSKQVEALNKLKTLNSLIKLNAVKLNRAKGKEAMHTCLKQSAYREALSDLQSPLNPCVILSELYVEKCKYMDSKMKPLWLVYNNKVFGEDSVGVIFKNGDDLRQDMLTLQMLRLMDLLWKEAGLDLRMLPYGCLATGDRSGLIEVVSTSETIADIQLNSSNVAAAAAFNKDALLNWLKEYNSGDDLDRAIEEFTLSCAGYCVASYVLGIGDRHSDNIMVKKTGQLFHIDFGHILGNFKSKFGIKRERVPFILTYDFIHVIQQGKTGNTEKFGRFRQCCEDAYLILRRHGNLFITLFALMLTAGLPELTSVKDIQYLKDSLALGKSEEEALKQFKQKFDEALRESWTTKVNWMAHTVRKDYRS
Method: as §1

[2] = target: T14, ABL1(F317I)-phosphorylated (Homo sapiens, UniProt P00519, F317I)
T14 construct: purchased Eurofins/DiscoverX KINOMEscan scanMAX
Method: as §1

CTK = target: T15, CTK (Homo sapiens, UniProt P42679)
T15 construct: purchased Eurofins/DiscoverX KINOMEscan scanMAX
T15 sequence (P42679 whole entry): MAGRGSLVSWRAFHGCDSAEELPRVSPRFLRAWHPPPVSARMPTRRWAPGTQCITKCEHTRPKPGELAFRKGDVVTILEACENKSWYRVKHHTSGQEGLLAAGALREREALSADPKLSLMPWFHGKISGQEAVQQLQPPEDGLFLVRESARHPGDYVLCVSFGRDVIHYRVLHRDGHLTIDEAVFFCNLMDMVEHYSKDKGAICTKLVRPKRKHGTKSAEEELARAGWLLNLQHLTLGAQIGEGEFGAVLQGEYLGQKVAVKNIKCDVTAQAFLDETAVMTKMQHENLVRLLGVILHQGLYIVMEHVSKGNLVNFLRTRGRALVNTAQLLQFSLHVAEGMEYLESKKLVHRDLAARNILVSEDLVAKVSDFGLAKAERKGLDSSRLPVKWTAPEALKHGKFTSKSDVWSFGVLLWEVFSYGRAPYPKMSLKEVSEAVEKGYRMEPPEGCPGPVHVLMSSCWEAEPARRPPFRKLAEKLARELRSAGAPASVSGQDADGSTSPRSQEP
Method: as §1

FGFR1 = target: T16, FGFR1 (Homo sapiens, UniProt P11362)
T16 construct: purchased Eurofins/DiscoverX KINOMEscan scanMAX
Method: as §1

BLK = target: T17, BLK (Homo sapiens, UniProt P51451)
T17 construct: purchased Eurofins/DiscoverX KINOMEscan scanMAX
Method: as §1

YES = target: T18, YES (Homo sapiens, UniProt P07947)
T18 construct: purchased Eurofins/DiscoverX (KINOMEscan scanMAX service)
Method: as §1

PRKD2 = target: T19, PRKD2 (Homo sapiens, UniProt Q9BZL6)
T19 construct: purchased Eurofins/DiscoverX KINOMEscan scanMAX
Method: as §1

ROCK2 = target: T20, ROCK2 (Homo sapiens, UniProt O75116)
T20 construct: purchased Eurofins/DiscoverX KINOMEscan scanMAX
Method: as §1

PRKG1 = target: T21, PRKG1 (Homo sapiens, UniProt Q13976)
T21 construct: purchased Eurofins/DiscoverX KINOMEscan scanMAX
Method: as §1

MAP4K2 = target: T22, MAP4K2 (Homo sapiens, UniProt Q12851)
T22 construct: purchased Eurofins/DiscoverX KINOMEscan scanMAX
T22 sequence (Q12851 whole entry): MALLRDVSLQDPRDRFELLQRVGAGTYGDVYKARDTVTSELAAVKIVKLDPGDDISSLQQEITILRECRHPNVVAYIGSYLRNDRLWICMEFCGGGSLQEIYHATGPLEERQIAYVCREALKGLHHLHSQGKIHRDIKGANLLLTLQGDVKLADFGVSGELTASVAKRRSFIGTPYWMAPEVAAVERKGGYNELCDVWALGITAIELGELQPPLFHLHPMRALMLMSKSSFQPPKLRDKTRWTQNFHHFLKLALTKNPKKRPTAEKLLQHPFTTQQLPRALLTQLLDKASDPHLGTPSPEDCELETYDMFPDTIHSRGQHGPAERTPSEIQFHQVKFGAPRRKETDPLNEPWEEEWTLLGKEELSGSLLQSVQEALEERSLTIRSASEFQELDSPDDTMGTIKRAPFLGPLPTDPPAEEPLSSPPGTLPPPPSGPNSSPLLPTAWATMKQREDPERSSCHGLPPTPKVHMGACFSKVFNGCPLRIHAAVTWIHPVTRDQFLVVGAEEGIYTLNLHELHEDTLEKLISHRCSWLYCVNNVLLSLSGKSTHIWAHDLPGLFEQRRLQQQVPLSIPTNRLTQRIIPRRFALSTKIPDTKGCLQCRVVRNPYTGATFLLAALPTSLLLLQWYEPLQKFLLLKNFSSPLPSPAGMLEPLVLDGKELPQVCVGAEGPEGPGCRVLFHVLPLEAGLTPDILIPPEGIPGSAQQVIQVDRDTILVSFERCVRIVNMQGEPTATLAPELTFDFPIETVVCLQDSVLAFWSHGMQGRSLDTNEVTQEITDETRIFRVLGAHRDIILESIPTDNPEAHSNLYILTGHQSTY
Method: as §1

PIP5K2B = target: T23, PIP5K2B (Homo sapiens, UniProt P78356)
T23 construct: purchased Eurofins/DiscoverX KINOMEscan scanMAX
Method: as §1

TNNI3K = target: T24, TNNI3K (Homo sapiens, UniProt Q59H18)
T24 construct: purchased Eurofins/DiscoverX KINOMEscan scanMAX
Method: as §1

PIP5K2C = target: T25, PIP5K2C (Homo sapiens, UniProt Q8TBX8)
T25 construct: purchased Eurofins/DiscoverX KINOMEscan scanMAX
Method: as §1

TNIK = target: T26, TNIK (Homo sapiens, UniProt Q9UKE5)
T26 construct: purchased Eurofins/DiscoverX KINOMEscan scanMAX
Method: as §1

NEK4 = target: T27, NEK4 (Homo sapiens, UniProt P51957)
T27 construct: purchased Eurofins/DiscoverX KINOMEscan scanMAX
Method: as §1

GRK1 = target: T28, GRK1 (Homo sapiens, UniProt Q15835)
T28 construct: purchased Eurofins/DiscoverX KINOMEscan scanMAX
Method: as §1

DMPK = target: T29, DMPK (Homo sapiens, UniProt Q09013)
T29 construct: purchased Eurofins/DiscoverX KINOMEscan scanMAX
Method: as §1

[3] = target: T30, ABL1(H396P)-nonphosphorylated (Homo sapiens, UniProt P00519, H396P)
T30 construct: purchased Eurofins/DiscoverX KINOMEscan scanMAX
Method: as §1

FGFR3 = target: T31, FGFR3 (Homo sapiens, UniProt P22607)
T31 construct: purchased Eurofins/DiscoverX KINOMEscan scanMAX
T31 sequence (P22607 23-806): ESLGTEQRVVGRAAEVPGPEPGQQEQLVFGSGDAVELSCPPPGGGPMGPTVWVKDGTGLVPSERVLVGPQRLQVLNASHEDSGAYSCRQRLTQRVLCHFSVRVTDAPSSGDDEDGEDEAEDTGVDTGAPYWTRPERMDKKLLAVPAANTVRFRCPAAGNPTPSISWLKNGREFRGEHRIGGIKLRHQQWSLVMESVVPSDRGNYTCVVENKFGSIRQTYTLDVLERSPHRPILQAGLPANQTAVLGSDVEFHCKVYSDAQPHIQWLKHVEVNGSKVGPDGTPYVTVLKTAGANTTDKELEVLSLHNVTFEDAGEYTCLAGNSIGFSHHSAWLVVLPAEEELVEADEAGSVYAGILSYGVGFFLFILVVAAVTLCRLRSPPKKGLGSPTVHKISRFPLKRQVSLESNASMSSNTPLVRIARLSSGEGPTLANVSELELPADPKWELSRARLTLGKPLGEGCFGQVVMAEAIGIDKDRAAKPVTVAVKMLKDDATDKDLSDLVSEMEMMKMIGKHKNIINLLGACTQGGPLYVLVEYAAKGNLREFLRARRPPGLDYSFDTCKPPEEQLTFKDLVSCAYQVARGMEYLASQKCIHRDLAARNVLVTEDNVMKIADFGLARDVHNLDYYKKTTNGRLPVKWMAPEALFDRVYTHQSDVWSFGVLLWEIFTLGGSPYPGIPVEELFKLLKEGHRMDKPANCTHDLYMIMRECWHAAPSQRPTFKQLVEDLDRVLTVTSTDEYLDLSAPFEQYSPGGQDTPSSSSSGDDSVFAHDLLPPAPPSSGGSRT
Method: as §1

PIK3C2G = target: T32, PIK3C2G (Homo sapiens, UniProt O75747)
T32 construct: purchased Eurofins/DiscoverX KINOMEscan scanMAX
Method: as §1

CDK5 = target: T33, CDK5 (Homo sapiens, UniProt Q00535)
T33 construct: purchased Eurofins/DiscoverX KINOMEscan scanMAX
Method: as §1

ASK2 = target: T34, ASK2 (Homo sapiens, UniProt O95382)
T34 construct: purchased Eurofins/DiscoverX KINOMEscan scanMAX
T34 sequence (O95382 whole entry): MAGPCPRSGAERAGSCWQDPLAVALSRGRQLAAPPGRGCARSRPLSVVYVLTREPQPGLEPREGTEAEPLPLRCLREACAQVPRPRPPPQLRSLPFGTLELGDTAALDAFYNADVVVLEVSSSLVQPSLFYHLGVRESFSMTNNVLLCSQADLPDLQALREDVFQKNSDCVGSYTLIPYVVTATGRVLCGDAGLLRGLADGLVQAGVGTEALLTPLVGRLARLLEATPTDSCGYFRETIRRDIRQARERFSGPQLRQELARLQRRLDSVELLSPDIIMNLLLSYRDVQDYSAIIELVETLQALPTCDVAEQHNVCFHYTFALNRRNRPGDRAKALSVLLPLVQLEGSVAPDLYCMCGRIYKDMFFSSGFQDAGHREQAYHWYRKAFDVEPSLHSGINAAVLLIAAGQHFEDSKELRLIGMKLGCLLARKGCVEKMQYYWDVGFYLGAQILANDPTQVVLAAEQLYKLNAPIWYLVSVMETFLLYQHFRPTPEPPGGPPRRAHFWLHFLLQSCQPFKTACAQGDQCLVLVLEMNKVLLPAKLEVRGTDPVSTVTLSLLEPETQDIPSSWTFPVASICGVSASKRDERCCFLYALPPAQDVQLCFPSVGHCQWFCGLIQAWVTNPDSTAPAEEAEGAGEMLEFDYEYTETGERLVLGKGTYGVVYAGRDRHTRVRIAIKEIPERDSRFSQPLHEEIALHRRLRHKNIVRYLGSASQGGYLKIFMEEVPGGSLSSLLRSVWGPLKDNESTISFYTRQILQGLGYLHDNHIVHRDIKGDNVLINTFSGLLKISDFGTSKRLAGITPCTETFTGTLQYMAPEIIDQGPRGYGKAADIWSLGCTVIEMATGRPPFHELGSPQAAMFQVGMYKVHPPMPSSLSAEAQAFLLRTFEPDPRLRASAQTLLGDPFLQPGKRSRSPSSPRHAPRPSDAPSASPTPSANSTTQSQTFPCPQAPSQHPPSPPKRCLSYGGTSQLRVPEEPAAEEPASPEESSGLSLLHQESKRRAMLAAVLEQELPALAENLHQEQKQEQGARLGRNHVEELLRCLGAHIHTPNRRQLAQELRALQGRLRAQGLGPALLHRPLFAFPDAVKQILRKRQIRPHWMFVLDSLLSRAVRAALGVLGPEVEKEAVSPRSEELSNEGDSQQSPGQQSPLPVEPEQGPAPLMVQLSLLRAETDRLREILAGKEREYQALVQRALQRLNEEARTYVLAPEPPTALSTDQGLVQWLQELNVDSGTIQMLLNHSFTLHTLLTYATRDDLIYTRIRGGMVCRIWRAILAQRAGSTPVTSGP
Method: as §1

RIPK5 = target: T35, RIPK5 (Homo sapiens, UniProt Q6XUX3)
T35 construct: purchased Eurofins/DiscoverX KINOMEscan scanMAX
Method: as §1

[4] = target: T36, RPS6KA4(Kin.Dom.2-C-terminal) (Homo sapiens, UniProt O75676)
T36 construct: RPS6KA4(Kin.Dom.2-C-terminal); purchased Eurofins/DiscoverX KINOMEscan scanMAX
Method: as §1

ABL1-nonphosphorylated = target: T37, ABL1-nonphosphorylated (Homo sapiens, UniProt P00519)
T37 construct: purchased Eurofins/DiscoverX KINOMEscan scanMAX
Method: as §1

CSF1R = target: T38, CSF1R (Homo sapiens, UniProt P07333)
T38 construct: purchased Eurofins/DiscoverX KINOMEscan scanMAX
Method: as §1

NDR1 = target: T39, NDR1 (Homo sapiens, UniProt Q15208)
T39 construct: purchased Eurofins/DiscoverX KINOMEscan scanMAX
Method: as §1

RET(M918T) = target: T40, RET(M918T) (Homo sapiens, UniProt P07949, M918T)
T40 construct: purchased Eurofins/DiscoverX KINOMEscan scanMAX
Method: as §1

NEK9 = target: T41, NEK9 (Homo sapiens, UniProt Q8TD19)
T41 construct: purchased Eurofins/DiscoverX KINOMEscan scanMAX
Method: as §1

`CN1CCN(C2CCC(n3cc(-c4ccc(Oc5ccccc5)cc4)c4c(N)ncnc43)CC2)CC1` (centres unmarked) [A-419259] was tested, and the “% Control” value (MEK6) was 98%, the “% Control” value (ULK3) was 84% and the “% Control” value (FGFR4) was 62%. The “% Control” value (SRPK3) was 99%, the “% Control” value (CLK2) was 100% and the “% Control” value [1] was 66%. The “% Control” value (PKAC-beta) was 100%, the “% Control” value (BRAF) was 66% and the “% Control” value (WNK4) was 39%. For the same compound, the “% Control” value (ASK1) was 100%, the “% Control” value (MELK) was 21% and the “% Control” value (RIPK1) was 100%. The “% Control” value (PIK3CB) was 64%, the “% Control” value [2] was 2.4% and the “% Control” value (CTK) was 89%. For the same compound, the “% Control” value (FGFR1) was 1.6%, the “% Control” value (BLK) was 0.05% and the “% Control” value (YES) was 0%. For the same compound, the “% Control” value (PRKD2) was 63%, the “% Control” value (ROCK2) was 62% and the “% Control” value (PRKG1) was 100%. The “% Control” value (MAP4K2) was 98%, the “% Control” value (PIP5K2B) was 94% and the “% Control” value (TNNI3K) was 91%. The “% Control” value (PIP5K2C) was 95%, the “% Control” value (TNIK) was 100% and the “% Control” value (NEK4) was 100%. For the same compound, the “% Control” value (GRK1) was 100%, the “% Control” value (DMPK) was 100% and the “% Control” value [3] was 0.2%. The “% Control” value (FGFR3) was 30%, the “% Control” value (PIK3C2G) was 100% and the “% Control” value (CDK5) was 83%. The “% Control” value (ASK2) was 62%, the “% Control” value (RIPK5) was 7.1% and the “% Control” value [4] was 99%. The “% Control” value (ABL1-nonphosphorylated) was 0.1%, the “% Control” value (CSF1R) was 5.8% and the “% Control” value (NDR1) was 68%. The “% Control” value (RET(M918T)) was 0.1% and the “% Control” value (NEK9) was 90%.
